Laboratory results reported in PubChem BioAssay AID1963961 (Molecular Pharmacology Branch, DTP, NCI, 2024).

Test system: K98450-129-R-PDC multicell spheroids, viability
Assay: Anticancer human tumor K98450-129-R-PDC patient-derived colon adenocarcinoma cell line growth inhibition [PI3K]
Conditions: for IC50: curve of first compound; for viability, T/C: stronger effect = lower value
In short: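 Three cell types, namely tumor cells, endothelial cells and mesenchymal stem cells, formed each spheroid. Combinations with four PI3K inhibitors were screened at clinically achievable concentrations decreasing by half-log, and spheroid viability was recorded.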

[1] = second compound 0.0316 µM, first compound 0.000316 µM
[2] = second compound 0.0316 µM, first compound 0.001 µM
[3] = second compound 0.0316 µM, first compound 0.00316 µM
[4] = second compound 0.0316 µM, first compound 0.01 µM
[5] = second compound 0.0316 µM, first compound 0.0316 µM
[6] = second compound 0.0316 µM, first compound 0.1 µM
[7] = second compound 0.1 µM, first compound 0.000316 µM
[8] = second compound 0.1 µM, first compound 0.001 µM
[9] = second compound 0.1 µM, first compound 0.00316 µM
[10] = second compound 0.1 µM, first compound 0.01 µM
[11] = second compound 0.1 µM, first compound 0.0316 µM
[12] = second compound 0.1 µM, first compound 0.1 µM
[13] = second compound 0.316 µM, first compound 0.000316 µM
[14] = second compound 0.316 µM, first compound 0.001 µM
[15] = second compound 0.316 µM, first compound 0.00316 µM
[16] = second compound 0.316 µM, first compound 0.01 µM
[17] = second compound 0.316 µM, first compound 0.0316 µM
[18] = second compound 0.316 µM, first compound 0.1 µM
[19] = second compound 1 µM, first compound 0.000316 µM
[20] = second compound 1 µM, first compound 0.001 µM
[21] = second compound 1 µM, first compound 0.00316 µM
[22] = second compound 1 µM, first compound 0.01 µM
[23] = second compound 1 µM, first compound 0.0316 µM
[24] = second compound 1 µM, first compound 0.1 µM
[25] = second compound 3.16 µM, first compound 0.000316 µM
[26] = second compound 3.16 µM, first compound 0.001 µM
[27] = second compound 3.16 µM, first compound 0.00316 µM
[28] = second compound 3.16 µM, first compound 0.01 µM
[29] = second compound 3.16 µM, first compound 0.0316 µM
[30] = second compound 3.16 µM, first compound 0.1 µM
[31] = second compound 10 µM, first compound 0.000316 µM
[32] = second compound 10 µM, first compound 0.001 µM
[33] = second compound 10 µM, first compound 0.00316 µM
[34] = second compound 10 µM, first compound 0.01 µM
[35] = second compound 10 µM, first compound 0.0316 µM
[36] = second compound 10 µM, first compound 0.1 µM
[37] = second compound 0.00316 µM, first compound 0.0316 µM
[38] = second compound 0.00316 µM, first compound 0.1 µM
[39] = second compound 0.01 µM, first compound 0.0316 µM
[40] = second compound 0.01 µM, first compound 0.1 µM
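Further: spheroids exposed to agents for seven days before read-out.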

`CC(=O)c1c(C)c2cnc(Nc3ccc(N4CCNCC4)cn3)nc2n(C2CCCC2)c1=O` + Cc1nc(NC(=O)N2CCCC2C(N)=O)sc1-c1ccnc(C(C)(C)C(F)(F)F)c1 was tested, and the IC50 (second compound 0.0316 µM) was > 100 nM, the IC50 (second compound 0.1 µM) was > 100 nM and the IC50 (second compound 0.316 µM) was > 100 nM. For the same compound, the IC50 (second compound 1 µM) was > 100 nM, the IC50 (second compound 3.16 µM) was > 100 nM and the IC50 (second compound 10 µM) was > 100 nM. The viability, T/C [1] was 110%, the viability, T/C [2] was 101% and the viability, T/C [3] was 104%. For the same compound, the viability, T/C [4] was 104%, the viability, T/C [5] was 100% and the viability, T/C [6] was 97.9%. For the same compound, the viability, T/C [7] was 108%, the viability, T/C [8] was 95.2% and the viability, T/C [9] was 97.9%. The viability, T/C [10] was 93.7%, the viability, T/C [11] was 106% and the viability, T/C [12] was 98%. For the same compound, the viability, T/C [13] was 104%, the viability, T/C [14] was 107% and the viability, T/C [15] was 95.3%. It also gave a viability, T/C [16] of 93.3%, a viability, T/C [17] of 103% and a viability, T/C [18] of 99%. It also gave a viability, T/C [19] of 90%, a viability, T/C [20] of 92.9% and a viability, T/C [21] of 91.3%. The viability, T/C [22] was 89.7%, the viability, T/C [23] was 98.8% and the viability, T/C [24] was 95.9%. The viability, T/C [25] was 88.2%, the viability, T/C [26] was 86.8% and the viability, T/C [27] was 84.6%. For the same compound, the viability, T/C [28] was 86.3%, the viability, T/C [29] was 92.1% and the viability, T/C [30] was 86.3%. It also gave a viability, T/C [31] of 79.4%, a viability, T/C [32] of 74.6% and a viability, T/C [33] of 77.3%. The viability, T/C [34] was 79.8%, the viability, T/C [35] was 80.9% and the viability, T/C [36] was 70.3%.
For `CC(C)NCC(C(=O)N1CCN(c2ncnc3c2C(C)CC3O)CC1)c1ccc(Cl)cc1` (stereo not drawn) + CC(Nc1ccc2c(c1)OCCn1cc(N3C(=O)OCC3C(F)F)nc1-2)C(N)=O, the IC50 (second compound 0.00316 µM) was > 10000 nM, the IC50 (second compound 0.01 µM) was > 10000 nM and the IC50 (second compound 0.0316 µM) was > 10000 nM. The IC50 (second compound 0.1 µM) was > 10000 nM, the IC50 (second compound 0.316 µM) was > 10000 nM and the IC50 (second compound 1 µM) was > 10000 nM. The viability, T/C [37] was 111%, the viability, T/C [38] was 98% and the viability, T/C (second compound 0.00316 µM, first compound 0.316 µM) was 101%. The viability, T/C (second compound 0.00316 µM, first compound 1 µM) was 101%, the viability, T/C (second compound 0.00316 µM, first compound 3.16 µM) was 109% and the viability, T/C (second compound 0.00316 µM, first compound 10 µM) was 98.4%. For the same compound, the viability, T/C [39] was 115%, the viability, T/C [40] was 96.1% and the viability, T/C (second compound 0.01 µM, first compound 0.316 µM) was 105%. It also gave a viability, T/C (second compound 0.01 µM, first compound 1 µM) of 98.1%, a viability, T/C (second compound 0.01 µM, first compound 3.16 µM) of 104% and a viability, T/C (second compound 0.01 µM, first compound 10 µM) of 102%. It also gave a viability, T/C [5] of 109%, a viability, T/C [6] of 104% and a viability, T/C (second compound 0.0316 µM, first compound 0.316 µM) of 98.9%. It also gave a viability, T/C (second compound 0.0316 µM, first compound 1 µM) of 101%, a viability, T/C (second compound 0.0316 µM, first compound 3.16 µM) of 109% and a viability, T/C (second compound 0.0316 µM, first compound 10 µM) of 96.9%. It also gave a viability, T/C [11] of 96.2%, a viability, T/C [12] of 91.7% and a viability, T/C (second compound 0.1 µM, first compound 0.316 µM) of 101%. The viability, T/C (second compound 0.1 µM, first compound 1 µM) was 102%, the viability, T/C (second compound 0.1 µM, first compound 3.16 µM) was 101% and the viability, T/C (second compound 0.1 µM, first compound 10 µM) was 96.2%. It also gave a viability, T/C [17] of 91%, a viability, T/C [18] of 90.5% and a viability, T/C (second compound 0.316 µM, first compound 0.316 µM) of 100%. It also gave a viability, T/C (second compound 0.316 µM, first compound 1 µM) of 99.2%, a viability, T/C (second compound 0.316 µM, first compound 3.16 µM) of 111% and a viability, T/C (second compound 0.316 µM, first compound 10 µM) of 94.2%. The viability, T/C [23] was 85.2%, the viability, T/C [24] was 85.4% and the viability, T/C (second compound 1 µM, first compound 0.316 µM) was 96.8%. For the same compound, the viability, T/C (second compound 1 µM, first compound 1 µM) was 94.1%, the viability, T/C (second compound 1 µM, first compound 3.16 µM) was 100% and the viability, T/C (second compound 1 µM, first compound 10 µM) was 95.2%.
With `CC(C)n1nc(-c2ccc3oc(N)nc3c2)c2c(N)ncnc21` + CC(Nc1ccc2c(c1)OCCn1cc(N3C(=O)OCC3C(F)F)nc1-2)C(N)=O the IC50 (second compound 0.00316 µM) was > 100 nM, the IC50 (second compound 0.01 µM) was > 100 nM and the IC50 (second compound 0.0316 µM) was > 100 nM. The IC50 (second compound 0.1 µM) was > 100 nM, the IC50 (second compound 0.316 µM) was > 100 nM and the IC50 (second compound 1 µM) was > 100 nM. The viability, T/C (second compound 0.00316 µM, first compound 0.000316 µM) was 106%, the viability, T/C (second compound 0.00316 µM, first compound 0.001 µM) was 93.9% and the viability, T/C (second compound 0.00316 µM, first compound 0.00316 µM) was 97.1%. The viability, T/C (second compound 0.00316 µM, first compound 0.01 µM) was 94.7%, the viability, T/C [37] was 90.3% and the viability, T/C [38] was 78.8%. It also gave a viability, T/C (second compound 0.01 µM, first compound 0.000316 µM) of 115%, a viability, T/C (second compound 0.01 µM, first compound 0.001 µM) of 100% and a viability, T/C (second compound 0.01 µM, first compound 0.00316 µM) of 103%. The viability, T/C (second compound 0.01 µM, first compound 0.01 µM) was 91.1%, the viability, T/C [39] was 96.1% and the viability, T/C [40] was 77.2%. For the same compound, the viability, T/C [1] was 99%, the viability, T/C [2] was 98.9% and the viability, T/C [3] was 99.4%. It also gave a viability, T/C [4] of 94.5%, a viability, T/C [5] of 96.5% and a viability, T/C [6] of 74%. For the same compound, the viability, T/C [7] was 100%, the viability, T/C [8] was 102% and the viability, T/C [9] was 95.4%. The viability, T/C [10] was 91.3%, the viability, T/C [11] was 93.1% and the viability, T/C [12] was 71.5%. For the same compound, the viability, T/C [13] was 93.1%, the viability, T/C [14] was 93.2% and the viability, T/C [15] was 99.7%. It also gave a viability, T/C [16] of 88.2%, a viability, T/C [17] of 79.1% and a viability, T/C [18] of 77.7%. The viability, T/C [19] was 87.2%, the viability, T/C [20] was 89.7% and the viability, T/C [21] was 81.3%. The viability, T/C [22] was 82.2%, the viability, T/C [23] was 80.9% and the viability, T/C [24] was 67.1%.
For `CC(=O)c1c(C)c2cnc(Nc3ccc(N4CCNCC4)cn3)nc2n(C2CCCC2)c1=O` + CC(Nc1ncnc2nc[nH]c12)c1cc2cccc(Cl)c2c(=O)n1-c1ccccc1, the IC50 (second compound 0.0316 µM) was > 100 nM, the IC50 (second compound 0.1 µM) was > 100 nM and the IC50 (second compound 0.316 µM) was > 100 nM. For the same compound, the IC50 (second compound 1 µM) was > 100 nM, the IC50 (second compound 3.16 µM) was > 100 nM and the IC50 (second compound 10 µM) was > 100 nM. For the same compound, the viability, T/C [1] was 105%, the viability, T/C [2] was 100% and the viability, T/C [3] was 110%. The viability, T/C [4] was 99%, the viability, T/C [5] was 100% and the viability, T/C [6] was 86.2%. The viability, T/C [7] was 109%, the viability, T/C [8] was 94.8% and the viability, T/C [9] was 94.2%. It also gave a viability, T/C [10] of 96.1%, a viability, T/C [11] of 93.1% and a viability, T/C [12] of 99.3%. For the same compound, the viability, T/C [13] was 107%, the viability, T/C [14] was 106% and the viability, T/C [15] was 93.7%. It also gave a viability, T/C [16] of 94.8%, a viability, T/C [17] of 101% and a viability, T/C [18] of 81.6%. The viability, T/C [19] was 102%, the viability, T/C [20] was 92.3% and the viability, T/C [21] was 90.2%. The viability, T/C [22] was 101%, the viability, T/C [23] was 101% and the viability, T/C [24] was 85.8%. It also gave a viability, T/C [25] of 105%, a viability, T/C [26] of 97.2% and a viability, T/C [27] of 87.6%. It also gave a viability, T/C [28] of 94.5%, a viability, T/C [29] of 96.9% and a viability, T/C [30] of 89.9%. For the same compound, the viability, T/C [31] was 92.4%, the viability, T/C [32] was 96.7% and the viability, T/C [33] was 74.5%. The viability, T/C [34] was 82.2%, the viability, T/C [35] was 103% and the viability, T/C [36] was 72.2%.
